{
  "source": "patent US20110294735A1",
  "about": "“MECHANISM OF NEUROMEDIN U ACTION AND USES THEREOF” (MERCK SHARP & DOHME CORP., priority 2008, published 2011)",
  "key": {"[1]": {"test_system": "PYY levels in plasma", "experiment": "Plasma PYY levels in diet-induced obese mice after subcutaneous dosing", "type": "in vivo", "procedure": "(§1) Animal dosing was as follows. Ad libitum fed male diet-induced obese mice were weighed and dosed subcutaneously about 30 minutes prior to the onset of the dark phase of the light cycle. Animals were either not given food or allowed food during treatment. For NMU studies, plasma was collected by cardiac sticks at two or four hours post dose. For studies with the PEGylated NMU analog, plasma was collected at multiple time points up to 18-hours post dose.\n(§2) GLP-1 levels in plasma were measured using the Total GLP-1 kit from Meso Scale Discovery, Gaithersburg, Md. Glucagon levels were measured using the Metabolic Multiplex kit from Meso Scale Discovery, Gaithersburg, Md. PYY levels were measured using the PYY Luminex assay from Millipore, Billerica, Mass. The data shown reports of glucagon, PYY and GLP-1 levels as pg/mL (all values are reported as mean±SEM and data was analyzed using a two-tailed unpaired Student's t test; p values ≦0.05 were reported as significant and are denoted with an asterisk).\n(§3) Diet-induced obese mice (DIO) were purchased from Taconic Farms. NMUR1 knockout (Nmur1−/−) mice were generated using standard homologous recombination techniques. U.S. Published Application No. 20080172752 discloses NMUR1 knockout mice. NMUR2 knockout (Nmur2−/−) mice were licensed from Deltagen Inc., San Mateo, Calif. and subsequently transferred to Taconic Farms. Mice were individually housed in Tecniplast cages in a conventional SPF facility. Mice were initially maintained on a regular chow diet and then early in their life were switched to a high fat diet (D12492: 60% kcal from fat; Research Diets, Inc., New Brunswick, N.J.) with ad libitum access to water in a 12-hour light/12-hour dark cycle."}, "[2]": {"test_system": "total GLP-1 levels in plasma", "experiment": "Plasma total GLP-1 levels in diet-induced obese mice after subcutaneous dosing", "type": "in vivo", "details": "for total GLP-1 levels: 10 mpk", "procedure": "as §1, §2, §3"}, "[3]": {"test_system": "plasma glucose levels", "experiment": "Oral glucose tolerance test, plasma glucose", "type": "in vivo, mice", "details": "15 minutes after oral glucose tolerance test (FIG. 6A)", "procedure": "(§4) The Oral Glucose Tolerance Test (OGTT) was performed as follows: Ad libitum fed male diet-induced obese mice were weighed and dosed subcutaneously about 30 minutes prior to the onset of the dark phase of the light cycle. Animals were not given food after dosing. The next day, approximately 18-hours after dosing, basal glucose levels were measured from animals by tail blood. Animals were then administered a glucose dose (1.5 g/kg) by oral gavage and fifteen minutes after dosing with glucose, plasma was collected to evaluate glucagon and glucose levels.\nas §3"}, "[4]": {"test_system": "glucagon levels in plasma", "experiment": "Oral glucose tolerance test, plasma glucagon", "type": "in vivo, mice", "details": "15 minutes after oral glucose tolerance test (FIG. 6B)", "procedure": "as §4, §2\nDiet-induced obese mice (DIO) were purchased from Taconic Farms. NMUR1 knockout (Nmur1−/−) mice were generated using standard homologous recombination techniques. U.S. Published Application No. 20080172752 discloses NMUR1 knockout mice. […]"}, "[5]": {"test_system": "Nmur1 knockout mice", "experiment": "Food intake and weight gain in Nmur1 knockout mice after peripheral administration", "type": "in vivo", "details": "administered peripherally"}, "[6]": {"test_system": "GLP-1 levels in plasma", "experiment": "Plasma GLP-1 levels in wild-type, Nmur1-deficient and Nmur2-deficient mice", "type": "in vivo", "details": "four-hours post dose, absence of food (FIG. 3)", "procedure": "as §2, §3\nPlasma was collected from wild-type, Nmur1-deficient and Nmur2-deficient mice four-hours post dose in the absence of food."}, "[7]": {"test_system": "mice", "details": "cited from earlier work"}, "[8]": {"test_system": "NMUR1 or NMUR2 receptors", "experiment": "Receptor specificity: binding and activation of NMUR1 or NMUR2", "type": "biochemical", "details": "bind and activate"}},
  "note": "Where two headings read alike, the source gives them in different places. Non-standard residues stand in square brackets, D forms with d. No end group written: not given here. hArg = N=C(N)NCCCC[C@H](N)C(=O)O",
  "data": [
    {"substance": "Ac-C2FRVDEEFQSPFASQSRGYFLFRPRN-CONH2 (Ac-C((PEG)2 40 kDa)FRVDEEFQSPFASQSRGYFLFRPRN-NH2; also: PEG size not given here) [NMU12, PEGylated NMU analog; differs from NMU9 by the source of the PEG]", "values": [
      {"measurement": "PYY levels", "setting": "[1]; 10 mpk, 18-hr post dose, absence of food (FIG. 4B)", "value": "did not increase"},
      {"measurement": "PYY levels in plasma", "setting": "[1]; 18-hours post dose, presence of food, obese mice (FIG. 4A)", "value": "dose-dependently increased"},
      {"measurement": "total GLP-1 levels", "setting": "[2]; 18-hours post dose, absence of food (FIG. 5B)", "value": "increased"},
      {"measurement": "total GLP-1 levels", "setting": "[2]; 18-hours post dose, presence of food (FIG. 5A)", "value": "increased"},
      {"measurement": "plasma glucose levels", "setting": "[3]; 0.1 mpk", "value": "reduced"},
      {"measurement": "plasma glucose levels", "setting": "[3]; 1 mpk", "value": "reduced"},
      {"measurement": "glucagon levels", "setting": "[4]; 0.1 mpk", "value": "reduced"},
      {"measurement": "glucagon levels", "setting": "[4]; 1 mpk", "value": "reduced"},
      {"measurement": "food intake", "setting": "[5]; Nmur1 knockout mice", "value": "reduce food intake"},
      {"measurement": "weight gain", "setting": "[5]; Nmur1 knockout mice", "value": "reduce weight gain"},
      {"measurement": "crossing the blood-brain barrier", "setting": "[5]; inferred from effect in Nmur1 knockout mice", "value": "able to cross the blood-brain barrier"}
    ]},
    {"substance": "FRVDEEFQSPFASQSRGYFLFRPRN-CONH2 (FRVDEEFQSPFASQSRGYFLFRPRN-NH2) [NMU]", "values": [
      {"measurement": "increase of PYY levels", "setting": "[1]; 10 mpk, four-hours post dose, obese mice (FIG. 1A)", "value": "about two-fold"},
      {"measurement": "PYY levels", "setting": "[1]; 10 mpk, four-hours post dose, obese mice (FIG. 1B)", "value": "increased"},
      {"measurement": "PYY levels", "setting": "[1]; 10 mpk, two-hours post dose, obese mice (FIG. 1B)", "value": "increased"},
      {"measurement": "total GLP-1 levels", "setting": "[2]; four-hours post dose, obese mice (FIG. 2A)", "value": "increased"},
      {"measurement": "total GLP-1", "setting": "[2]; chronic treatment 3 mpk/day subcutaneously for two weeks (FIG. 2B)", "value": "significant increase"},
      {"measurement": "GLP-1 levels", "setting": "[6]; Nmur1-deficient mice", "value": "not"},
      {"measurement": "GLP-1 levels", "setting": "[6]; Nmur2-deficient mice", "value": "Increased"},
      {"measurement": "GLP-1 levels", "setting": "[6]; wild-type mice", "value": "Increased"},
      {"measurement": "food intake", "setting": "[7]; acute administration, centrally or peripherally, mice", "value": "reduce"},
      {"measurement": "core body temperature", "setting": "[7]; acute peripheral administration, mice", "value": "dose-dependently increases"},
      {"measurement": "anorectic actions", "setting": "[7]; centrally administered, NMUR1-deficient (Nmur1-/-) mice", "value": "present"},
      {"measurement": "anorectic actions", "setting": "[7]; centrally administered, NMUR2-deficient (Nmur2-/-) mice", "value": "absent"},
      {"measurement": "food intake, body weight and adiposity", "setting": "[7]; chronic administration, centrally or peripherally, mice", "value": "reduces"},
      {"measurement": "anorectic actions", "setting": "[7]; peripherally administered, Nmur1-/- mice", "value": "absent"},
      {"measurement": "anorectic actions", "setting": "[7]; peripherally administered, Nmur2-/- mice", "value": "present"}
    ]},
    {"substance": "FRVDEEFQSPFASQSRGFWLFRP-(Harg)-N-CONH2 (FRVDEEFQSPFASQSRGFWLFRP[hArg]N-NH2; N-terminus assumed; SMILES CC(C)C[C@H](NC(=O)[C@H](Cc1c[nH]c2ccccc12)NC(=O)[C@H](Cc1ccccc1)NC(=O)CNC(=O)[C@H](CCCNC(=N)N)NC(=O)[C@H](CO)NC(=O)[C@H](CCC(N)=O)NC(=O)[C@H](CO)NC(=O)[C@H](C)NC(=O)[C@H](Cc1ccccc1)NC(=O)[C@@H]1CCCN1C(=O)[C@H](CO)NC(=O)[C@H](CCC(N)=O)NC(=O)[C@H](Cc1ccccc1)NC(=O)[C@H](CCC(=O)O)NC(=O)[C@H](CCC(=O)O)NC(=O)[C@H](CC(=O)O)NC(=O)[C@@H](NC(=O)[C@H](CCCNC(=N)N)NC(=O)[C@@H](N)Cc1ccccc1)C(C)C)C(=O)N[C@@H](Cc1ccccc1)C(=O)N[C@@H](CCCNC(=N)N)C(=O)N1CCC[C@H]1C(=O)N[C@@H](CCCCNC(=N)N)C(=O)N[C@@H](CC(N)=O)C(N)=O)", "values": [
      {"measurement": "receptor specificity (NMUR1 / NMUR2)", "setting": "[8]", "value": "bispecific"}
    ]},
    {"substance": "rat NMU-23: full length NMU, a 23-mer (NMU-23) in rats and mice (YKVNEYQGPVAPSGGFFLFRPRN; ends and bridges not checked; UniProt P12760 144-166, looked up) [reference compound]", "values": [
      {"measurement": "body weight, body composition, body temperature and food intake", "setting": "[7]; chronic central administration, Nmur2-/- transgenic mice", "value": "largely unaffected"},
      {"measurement": "body weight, body composition and food intake", "setting": "[7]; chronic peripheral administration, Nmur1-/- transgenic mice", "value": "largely unaffected"}
    ]},
    {"substance": "FALFRPRN-CONH2 (FALFRPRN-NH2)", "values": [
      {"measurement": "receptor specificity (NMUR1 / NMUR2)", "setting": "[8]", "value": "bispecific"}
    ]},
    {"substance": "FRVDEEFQSPFASQSRGFWLFRA-(Harg)-N-CONH2 (FRVDEEFQSPFASQSRGFWLFRA[hArg]N-NH2; N-terminus assumed; SMILES CC(C)C[C@H](NC(=O)[C@H](Cc1c[nH]c2ccccc12)NC(=O)[C@H](Cc1ccccc1)NC(=O)CNC(=O)[C@H](CCCNC(=N)N)NC(=O)[C@H](CO)NC(=O)[C@H](CCC(N)=O)NC(=O)[C@H](CO)NC(=O)[C@H](C)NC(=O)[C@H](Cc1ccccc1)NC(=O)[C@@H]1CCCN1C(=O)[C@H](CO)NC(=O)[C@H](CCC(N)=O)NC(=O)[C@H](Cc1ccccc1)NC(=O)[C@H](CCC(=O)O)NC(=O)[C@H](CCC(=O)O)NC(=O)[C@H](CC(=O)O)NC(=O)[C@@H](NC(=O)[C@H](CCCNC(=N)N)NC(=O)[C@@H](N)Cc1ccccc1)C(C)C)C(=O)N[C@@H](Cc1ccccc1)C(=O)N[C@@H](CCCNC(=N)N)C(=O)N[C@@H](C)C(=O)N[C@@H](CCCCNC(=N)N)C(=O)N[C@@H](CC(N)=O)C(N)=O)", "values": [
      {"measurement": "receptor specificity (NMUR1 / NMUR2)", "setting": "[8]", "value": "bispecific"}
    ]}
  ]
}
